In ChEMBL document CHEMBL1131712, “Short synthesis and anti-rhinoviral activity of imidazo[1,2-a]pyridines: the effect of acyl groups at 3-position” (Bioorg Med Chem Lett, 1999) one finds IC50 and CC50 data, which are given here for five compounds.

Converted amounts (≈) assume the structure as drawn. Bounds are passed on as bounds.

In one series the test system is rhinovirus B14. The experiment in a line: Inhibitory concentration required against Human rhinovirus-14 (HRV-14) using plaque reduction assay. The series is classed as functional, organism-based, Enterovirus. As to conditions: Rhinovirus B. (Plaques are areas of infected cells; plaque reduction assays count them against a control.)
The nature of series [1]: Cellular toxic concentration against Human rhinovirus-14 (HRV-14) using cytopathic effect assay(CPE/XTT). The series is classed as organism-based, Enterovirus. As to conditions: read-out: TC50 (the source's name). For orientation: Cytopathic effects are the visible damage that an infection or toxin causes in cultured cells.

The compound `CNC(=O)/C=C(\c1ccccc1)c1ccc2nc(N)c(C(=O)c3ccc(F)cc3)n2c1` showed an IC50 in the series with rhinovirus B14 of 0.37 µg/mL (≈ 0.893 µM). In series [1], the CC50 came to 3.97 µg/mL (≈ 9.58 µM).
In the same order, the values of `CNC(=O)/C=C(\c1ccccc1)c1ccc2nc(N)c(C(=O)C(C)(C)C)n2c1` are 0.17 µg/mL (≈ 0.452 µM) and > 10 µg/mL.
Take `CC(C)S(=O)(=O)n1c(N)nc2ccc(/C(=N/O)c3ccccc3)cc21` [ENVIROXIME]: it took 0.045 µg/mL (≈ 0.126 µM) to reach half-maximal inhibition in the series with rhinovirus B14 (IC50).
As for `CNC(=O)/C=C(\c1ccccc1)c1ccc2nc(N)c(C(=O)c3ccccc3)n2c1`, the midpoint of inhibition with rhinovirus B14, the IC50, lay at 0.24 µg/mL (≈ 0.605 µM). In series [1], the CC50 worked out at 2.95 µg/mL (≈ 7.44 µM).
On the same counts, the results for `CNC(=O)/C=C(\c1ccccc1)c1ccc2nc(N)c(C(C)=O)n2c1` are 2.48 µg/mL (≈ 7.42 µM) and 22.8 µg/mL (≈ 68.2 µM).

One may read the IC50 as the midpoint of a concentration-inhibition curve.
